# Experimental data reported in patent US20090181986A1, “SUBSTITUTED HETEROCYCLIC COMPOUNDS” (priority 2007, published 2009).
# Key:
# L-type calcium channel = L-type calcium channel activity well-plate assay (IMR-32 cells, Ca-4 dye, FlexStation); format: cell-based, human
# Protocol: Cell Culture: IMR-32 (human neuroblastoma) cells were obtained from The American Type Culture Collection. The cells were maintained in MEM supplemented with 10% fetal bovine serum, 2 mM of L-glutamine, 100 IU/ml of penicillin, 50 μg/ml of streptomycin, 1% of sodium pyruvate, 1% of sodium bicarbonate and 1% of non-essential amino acid. […] Culture medium was changed every two days and cells were recultivated when they reached 70-80% confluent.
# Assay: IMR-32 cells were seeded on a Microtest 96-well Assay Plate (BD FALCON™) at a density of 200,000 cells/well in 200 μl culture medium for overnight. The culture medium was removed, and replaced by 120 μl Ca-4 dye (MDS Analytical Technologies, Sunnyvale, Calif.) in HBSS (1× Hank's Balanced Salt solution plus 20 mM HEPES, pH 7.4) containing 2 mM probenecid. Cells were then incubated for 1 hour at 37° in incubator. Testing compounds were diluted from 5 μM-50 μM in HBSS, and 40 μl were added in cells before assay. […] The inhibition of L-type calcium channel activity by compounds was then calculated.
# hERG potassium channel = hERG potassium channel (Homo sapiens, UniProt Q12809); assay: hERG screening assay (PatchXpress patch clamp, CHO cells)
# hERG potassium channel, sequence (Q12809 whole entry): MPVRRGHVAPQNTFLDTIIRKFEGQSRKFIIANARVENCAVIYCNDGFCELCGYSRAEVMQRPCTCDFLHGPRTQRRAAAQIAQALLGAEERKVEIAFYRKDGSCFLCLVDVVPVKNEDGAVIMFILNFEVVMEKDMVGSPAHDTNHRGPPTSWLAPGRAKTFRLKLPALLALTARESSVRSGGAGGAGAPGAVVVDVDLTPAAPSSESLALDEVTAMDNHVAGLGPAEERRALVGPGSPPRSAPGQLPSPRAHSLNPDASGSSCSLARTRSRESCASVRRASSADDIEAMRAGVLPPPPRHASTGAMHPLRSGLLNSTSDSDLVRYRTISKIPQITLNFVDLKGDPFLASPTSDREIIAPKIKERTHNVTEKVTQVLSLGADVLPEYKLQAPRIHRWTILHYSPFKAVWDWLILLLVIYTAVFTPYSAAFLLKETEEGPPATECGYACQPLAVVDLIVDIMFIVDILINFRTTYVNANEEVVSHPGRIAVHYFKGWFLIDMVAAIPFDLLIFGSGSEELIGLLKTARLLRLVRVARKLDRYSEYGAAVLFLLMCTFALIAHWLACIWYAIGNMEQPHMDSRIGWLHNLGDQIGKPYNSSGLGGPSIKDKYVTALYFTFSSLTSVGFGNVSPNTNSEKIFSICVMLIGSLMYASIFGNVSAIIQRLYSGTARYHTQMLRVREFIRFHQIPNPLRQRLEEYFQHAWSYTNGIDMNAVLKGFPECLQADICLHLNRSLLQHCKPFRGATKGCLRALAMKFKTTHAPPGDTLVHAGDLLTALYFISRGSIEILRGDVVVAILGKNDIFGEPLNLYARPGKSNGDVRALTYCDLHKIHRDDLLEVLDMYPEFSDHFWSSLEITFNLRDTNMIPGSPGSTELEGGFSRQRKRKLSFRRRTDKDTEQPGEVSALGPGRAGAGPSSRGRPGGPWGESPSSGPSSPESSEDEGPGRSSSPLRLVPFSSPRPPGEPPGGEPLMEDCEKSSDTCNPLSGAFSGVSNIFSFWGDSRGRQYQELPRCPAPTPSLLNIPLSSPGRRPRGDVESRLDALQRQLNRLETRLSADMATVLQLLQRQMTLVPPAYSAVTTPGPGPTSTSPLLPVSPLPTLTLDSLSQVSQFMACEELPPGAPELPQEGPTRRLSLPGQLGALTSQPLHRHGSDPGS
Compound,CaL Plate Assay % blk (1 μM test cmpd) (L-type calcium channel) [%],CaL Plate Assay % blk (10 μM test cmpd) (L-type calcium channel) [%],hERG Patch Clamp hERG % blk (1 μM test cmpd) (hERG potassium channel) [%],hERG Patch Clamp hERG % blk (10 μM test cmpd) (hERG potassium channel) [%]
"CC1=C(C(=O)OCC(F)(F)F)C(c2cccc3ccccc23)n2nnnc2N1 (centres unmarked) [PT-014, 2,2,2-trifluoroethyl 5-methyl-7-(naphthalen-1-yl)-4,7-dihydrotetrazolo[1,5-a]pyrimidine-6-carboxylate]",0,40,–,–
"CCCC1=C(C(=O)OCC)C(c2ccsc2)C2=C(CC(c3ccco3)CC2=O)N1 (centres unmarked) [PT-150, ethyl 7-(furan-2-yl)-5-oxo-2-propyl-4-(thiophen-3-yl)-1,4,5,6,7,8-hexahydroquinoline-3-carboxylate]",4,71,–,–
"CCOC(=O)C1=C(C)NC2=C(C(=O)CCC2)C1c1ccc(C)c2ccccc12 (centres unmarked) [PT-135, ethyl 2-methyl-4-(4-methylnaphthalen-1-yl)-5-oxo-1,4,5,6,7,8-hexahydroquinoline-3-carboxylate]",24,62,–,–
"CCOC(=O)C1=C(C)NC(C)=C(C(=O)OCC)C1c1ccsc1 [PT-110, diethyl 2,6-dimethyl-4-(thiophen-3-yl)-1,4-dihydropyridine-3,5-dicarboxylate]",86,88,–,–
"N#CC1=C(N)OC2=C(C(=O)CC(c3ccccc3)C2)C1c1ccsc1 (centres unmarked) [PT-102, 2-amino-5-oxo-7-phenyl-4-(thiophen-3-yl)-5,6,7,8-tetrahydro-4H-chromene-3-carbonitrile]",6,51,–,–
"CC1=C(C(=O)OCc2ccccc2)C(c2cc3ccccc3s2)n2nnnc2N1 (centres unmarked) [PT-043, benzyl 7-(benzo[b]thiophen-2-yl)-5-methyl-4,7-dihydrotetrazolo[1,5-a]pyrimidine-6-carboxylate]",23,60,–,–
"CCS(=O)(=O)N1CCN(c2cccc(OC)c2C2C(C(=O)OCc3ccccc3)=C(C)Nc3nnnn32)CC1 (centres unmarked) [PT-378, benzyl 7-(2-(4-(ethylsulfonyl)piperazin-1-yl)-6-methoxyphenyl)-5-methyl-4,7-dihydrotetrazolo[1,5-a]pyrimidine-6-carboxylate]",–,–,10,41.5
"CC1=C(C(=O)O[C@@H](C)c2ccccc2)[C@@H](c2cccc3ccccc23)n2nnnc2N1 [PT-050, (R)-((S)-1-phenylethyl) 5-methyl-7-(naphthalen-1-yl)-4,7-dihydrotetrazolo[1,5-a]pyrimidine-6-carboxylate]",–,–,10,53.5
"CC1=C(C(=O)OCc2ccccc2)C(c2cccc3c2OCO3)n2nnnc2N1 (centres unmarked) [PT-034, benzyl 7-(benzo[d][1,3]dioxol-4-yl)-5-methyl-4,7-dihydrotetrazolo[1,5-a]pyrimidine-6-carboxylate]",–,–,14.5,56
"CC1=C(C(=O)OCc2ccccc2)C(c2nccs2)n2nccc2N1 (centres unmarked) [PT-363, benzyl 5-methyl-7-(thiazol-2-yl)-4,7-dihydropyrazolo[1,5-a]pyrimidine-6-carboxylate]",–,–,10,19.5
"CC1=C(C(=O)OCc2ccccc2)C(c2ccccc2N2CCN(C)CC2)n2nnnc2N1 (centres unmarked) [PT-340, benzyl 5-methyl-7-(2-(4-methylpiperazin-1-yl)phenyl)-4,7-dihydrotetrazolo[1,5-a]pyrimidine-6-carboxylate]",–,–,57,93.5
"CCOC(=O)C1=C(C)Nc2[nH]ncc2C1c1ccccc1Br (centres unmarked) [PT-448, ethyl 4-(2-bromophenyl)-6-methyl-4,7-dihydro-1H-pyrazolo[3,4-b]pyridine-5-carboxylate]",–,–,10,57.5
"CC1=C(C(=O)OCc2ccccc2)C(c2occc2-c2ccc(F)cc2)n2nnnc2N1 (centres unmarked) [PT-396, benzyl 7-(3-(4-fluorophenyl)furan-2-yl)-5-methyl-4,7-dihydrotetrazolo[1,5-a]pyrimidine-6-carboxylate]",–,–,10,32
"CC(=O)c1ccc(-c2ccccc2C2C(C(=O)OCc3ccccc3)=C(C)Nc3nnnn32)cc1 (centres unmarked) [PT-415, benzyl 7-(4′-acetylbiphenyl-2-yl)-5-methyl-4,7-dihydrotetrazolo[1,5-a]pyrimidine-6-carboxylate]",–,–,10.5,38.5
"CCOC(=O)C1=C(C)Nc2nnnn2C1c1ccccc1-n1ccnc1C.Cl (centres unmarked) [PT-457, ethyl 5-methyl-7-(2-(2-methyl-1H-imidazol-1-yl)phenyl)-4,7-dihydrotetrazolo[1,5-a]pyrimidine-6-carboxylate hydrochloride]",–,–,10,21
"CCOC(=O)C1=C(C)Nc2nnnn2C1c1cccc(Oc2ccccc2)c1 (centres unmarked) [PT-464, ethyl 5-methyl-7-(3-phenoxyphenyl)-4,7-dihydrotetrazolo[1,5-a]pyrimidine-6-carboxylate]",–,–,11,55
"CC1=C(C(=O)OCc2ccccc2)C(c2ccc3ccccc3c2)C2=C(CCCC2=O)N1 (centres unmarked) [PT-320, benzyl 2-methyl-4-(naphthalen-2-yl)-5-oxo-1,4,5,6,7,8-hexahydroquinoline-3-carboxylate]",–,–,10,10
"CC1=C(C(=O)OCc2ccccc2)C(c2ccccc2N2CCN(S(C)(=O)=O)CC2)n2nnnc2N1 (centres unmarked) [PT-339, benzyl 5-methyl-7-(2-(4-(methylsulfonyl)piperazin-1-yl)phenyl)-4,7-dihydrotetrazolo[1,5-a]pyrimidine-6-carboxylate]",–,–,11.5,43.5
"CCOC(=O)C1=C(C)Nc2nnnn2C1c1ccccc1-c1cccc(-c2nnn[nH]2)c1 (centres unmarked) [PT-493, ethyl 7-(3′-(1H-tetrazol-5-yl)biphenyl-2-yl)-5-methyl-4,7-dihydrotetrazolo[1,5-a]pyrimidine-6-carboxylate]",–,–,10,10
"CCOC(=O)C1=C(C)Nc2nnnn2C1c1ccccc1-n1cccn1.Cl (centres unmarked) [PT-477, ethyl 7-(2-(1H-pyrazol-1-yl)phenyl)-5-methyl-4,7-dihydrotetrazolo[1,5-a]pyrimidine-6-carboxylate hydrochloride]",–,–,12,44
"CC1=C(C(=O)OCc2ccccc2)C(c2ccccc2-c2ccc(C(=O)O)cc2)C2=C(CCCC2=O)N1 (centres unmarked) [PT-249, 2′-(3-(benzyloxycarbonyl)-2-methyl-5-oxo-1,4,5,6,7,8-hexahydroquinolin-4-yl)biphenyl-4-carboxylic acid]",–,–,11.5,15.5
"COc1ccc2ccccc2c1C1C(C(=O)OCc2ccccc2)=C(C)Nc2nnnn21 (centres unmarked) [PT-030, benzyl 7-(2-methoxynaphthalen-1-yl)-5-methyl-4,7-dihydrotetrazolo[1,5-a]pyrimidine-6-carboxylate]",–,–,10.5,34.5
"COC(=O)C1=C(C)Nc2nnnn2C1c1cccc2ccccc12 (centres unmarked) [PT-512, methyl 5-methyl-7-(naphthalen-1-yl)-4,7-dihydrotetrazolo[1,5-a]pyrimidine-6-carboxylate]",–,–,10.5,14
"CC1=C(C(=O)OCc2ccc(Cn3cccn3)cc2)C(c2cccc3ccccc23)n2nnnc2N1 (centres unmarked) [PT-279, 4-((1H-pyrazol-1-yl)methyl)benzyl 5-methyl-7-(naphthalen-1-yl)-4,7-dihydrotetrazolo[1,5-a]pyrimidine-6-carboxylate]",–,–,12.5,45
"CC1=C(C(=O)OCc2ccccc2)C(c2sccc2-c2ccc(F)cc2)n2nnnc2N1 (centres unmarked) [PT-397, benzyl 7-(3-(4-fluorophenyl)thiophen-2-yl)-5-methyl-4,7-dihydrotetrazolo[1,5-a]pyrimidine-6-carboxylate]",–,–,10,25
"CC1=C(C(=O)OC(C)Cc2ccccc2)C(c2cccc3ccccc23)n2nnnc2N1 (centres unmarked) [PT-064, 1-phenylpropan-2-yl 5-methyl-7-(naphthalen-1-yl)-4,7-dihydrotetrazolo[1,5-a]pyrimidine-6-carboxylate]",–,–,20.5,37.5
"CC1=C(C(=O)OCc2ccccc2)C(c2nccs2)n2nnnc2N1 (centres unmarked) [PT-364, benzyl 5-methyl-7-(thiazol-2-yl)-4,7-dihydrotetrazolo[1,5-a]pyrimidine-6-carboxylate]",–,–,10,17.5
"CC1=C(C(=O)OCc2ccc(Cn3cccn3)cc2)C(c2cccs2)n2nnnc2N1 (centres unmarked) [PT-280, 4-((1H-pyrazol-1-yl)methyl)benzyl 5-methyl-7-(thiophen-2-yl)-4,7-dihydrotetrazolo[1,5-a]pyrimidine-6-carboxylate]",–,–,11.5,48
